The record followed here is ChEMBL document CHEMBL4350975, “Assessment of quinazolinone derivatives as novel non-nucleoside hepatitis B virus inhibitors” (Eur J Med Chem, 2019).

The target of data set [1] is Core antigen (Hepatitis B virus) (UniProt Q03732). Description: Inhibition of capsid protein in Hepatitis B virus infected in human HepG2.2.15 cells assessed as reduction in viral DNA level supplemented with fresh medium containing compound every 2 days and measured after 6 days by RT-PCR analysis relative to control. It is filed as cell-based. More on the design: concentration or dose not given beside the values. The conditions noted are these: concentration not given here.

Data set [2] in a line: Cytotoxicity against human HepG2.2.15 cells assessed as cell viability measured after 72 hrs by MTT assay. It is filed as cell-based, HepG2 2.2.15. For orientation: Formazan colour is commonly taken as a measure of viable cells.
Data set [3] in a line: Selectivity index, ratio of CC50 for human HepG2.2.15 cells to IC50 for capsid protein in Hepatitis B virus infected in human HepG2.2.15 cells assessed as reduction in viral DNA level. It is filed as toxicity, cell-based. The conditions noted are these: read-out: Ratio CC50/IC50.
Data set [4] addresses Core antigen (Hepatitis B virus) (UniProt Q03732). Kind of data set: Inhibition of capsid protein in lamivudine/entecavir-resistant Hepatitis B virus harboring rtL180M/rtM204V/rt184L mutant infected in human HepG2.2.15 cells assessed as reduction in viral DNA level at 4 uM measured after 72 hrs by PCR analysis relative to control. The data set is classed as cell-based.
Data set [5] can be described thus: Selectivity index, ratio of CC50 for human HepG2.2.15 cells to IC50 for capsid protein in lamivudine/entecavir-resistant Hepatitis B virus harboring rtL180M/rtM204V/rt184L mutant infected in human HepG2.2.15 cells assessed as reduction in viral DNA level. The data set is classed as toxicity, cell-based. The conditions noted are these: read-out: Ratio CC50/IC50.

The target in data set [6] is Core antigen (Hepatitis B virus) (UniProt Q03732). Kind of data set: Inhibition of capsid protein in wild type Hepatitis B virus infected in human HepG2.2.15 cells assessed as reduction of viral DNA level at 4 uM measured after 72 hrs by PCR analysis relative to control. It is filed as cell-based.
For data set [7] the target is unchanged. Kind of data set: Inhibition of capsid protein in lamivudine/entecavir-resistant Hepatitis B virus harboring rtL180M/rtM204V/rt184L mutant infected in human HepG2.2.15 cells assessed as reduction in viral DNA level at 100 uM measured after 72 hrs by PCR analysis relative to control. It is filed as cell-based.
The target is the same in data set [8]. Description: Inhibition of capsid protein in wild type Hepatitis B virus infected in human HepG2.2.15 cells assessed as reduction in viral DNA level at 100 uM measured after 72 hrs by PCR analysis relative to control. The data set is classed as cell-based.
Data set [9] has the same target. Kind of data set: Inhibition of capsid protein in lamivudine/entecavir-resistant Hepatitis B virus harboring rtL180M/rtM204V/rt184L mutant infected in human HepG2.2.15 cells assessed as reduction in viral DNA level at 10 uM measured after 72 hrs by PCR analysis relative to control. The data set is classed as cell-based.
For data set [10] the target is unchanged. Description: Inhibition of capsid protein in wild type Hepatitis B virus infected in human HepG2.2.15 cells assessed as reduction of viral DNA level at 10 uM measured after 72 hrs by PCR analysis relative to control. The data set is classed as cell-based.

What is called inhibition is the share of the control response that was lost under treatment. As a reminder, the CC50 is the concentration at which the toxic effect on the cells reaches its halfway point.

Chain of Core antigen (Hepatitis B virus) (Q03732 as listed by the source): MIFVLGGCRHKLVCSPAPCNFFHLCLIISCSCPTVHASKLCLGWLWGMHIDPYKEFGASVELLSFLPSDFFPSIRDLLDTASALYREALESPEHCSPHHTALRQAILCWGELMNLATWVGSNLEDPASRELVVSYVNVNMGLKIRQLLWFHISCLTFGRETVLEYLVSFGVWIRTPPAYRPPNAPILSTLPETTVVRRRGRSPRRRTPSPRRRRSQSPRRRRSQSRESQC

For `COc1ccccc1CSc1nc2ccc(C)cc2c(=O)n1Cc1cccs1`, the inhibition in data set [1] was determined as 69.4%. For the same compound, the CC50 at 72 h in data set [2] was > 100 µM.
The matching figures for `COc1ccc(C(C)=O)cc1CSc1nc2ccc(Cl)cc2c(=O)n1Cc1cccs1`: 40.7% and 74.6 µM.
The matching figures for `CCN(CC)CCOc1ccc2nc(SCc3cc(C(C)=O)ccc3OC)n(Cc3cccs3)c(=O)c2c1`: 42% and 8.76 µM.
Consider `COc1ccc(C(C)=O)cc1CSc1nc2ccccc2c(=O)n1Cc1cccs1`, for which the selectivity ratio in data set [3] is 17.6. For the same compound, the inhibition in data set [1] was found to be 47.1%. For the same compound, in [2], the CC50 at 72 h was 71.5 µM.
Turning to `COc1ccccc1CSc1nc2ccc(O)cc2c(=O)n1Cc1cccs1`, the inhibition in data set [1] came out at 0.59%. In [2], the CC50 at 72 h was > 100 µM.
Regarding `O=c1c2cc(Br)ccc2nc(SCc2ccccc2)n1Cc1cccs1`, in data set [1], the inhibition was determined as 16.7%. In addition, the half-maximal cytotoxic concentration (CC50) at 72 h in [2] is > 100 µM.
The matching figures for `O=c1c2ccccc2nc(SCc2ccccc2)n1Cc1cccs1`: 11% and > 100 µM.
For the compound `COc1ccc(C(C)=O)cc1CSc1nc2ccc(C)cc2c(=O)n1Cc1cccs1`, the inhibition in data set [1] was 56.1%. The CC50 at 72 h in data set [2] was > 100 µM.
In the same order, the values of `COc1ccccc1CSc1nc2ccc(I)cc2c(=O)n1Cc1cccs1` are 65.9% and > 100 µM.
`O=c1c2cc(Cl)ccc2nc(SCc2ccccc2)n1Cc1cccs1`: the inhibition in data set [1] worked out at 16.1%. Further, the CC50 at 72 h in [2] was > 100 µM.
In the same order, the values of `COc1ccc(C(C)=O)cc1CSc1nc2ccc(OCCN(C)C)cc2c(=O)n1Cc1cccs1` are 33.9% and 18 µM.
For the compound `COc1ccccc1CSc1nc2ccccc2c(=O)n1Cc1cccs1`, the selectivity ratio in [3] was > 35.6. The inhibition in data set [1] turned out to be 76.3%. Moreover, the 50% cytotoxic concentration (CC50) at 72 h in data set [2] is > 100 µM.
As for `CN(C)CCOc1ccc2nc(SCc3ccccc3)n(Cc3cccs3)c(=O)c2c1`, the inhibition turned out to be 80.9% in data set [4], 83.3% in data set [1] and 82% in [6]. The selectivity ratio worked out at 13.7 in [3] and 14.1 in data set [5]. In data set [2], the CC50 at 72 h was in the range of 21.1 to 26.7 µM.
With `CCN(CC)CCOc1ccc2nc(SCc3ccccc3)n(Cc3cccs3)c(=O)c2c1`, the inhibition in data set [4] stood at 94%; in data set [1] it was 98.4%; in data set [6], 96.1%. Further, the figures for the selectivity ratio in data set [3] and in data set [5] were 22.2 and 21.4, respectively. Further, the CC50 at 72 h in [2] was in the range of 15.8 to 18 µM.
Take `CCN(CC)CCOc1ccc2nc(SCc3ccccc3OC)n(Cc3cccs3)c(=O)c2c1`: in data set [3], the selectivity ratio was 5.25. Also, in data set [1], the inhibition is 76%. The cytotoxic concentration (CC50) at 72 h in data set [2] came out at 10.1 µM.
In the case of `Nc1ccn([C@@H]2CS[C@H](CO)O2)c(=O)n1` [LAMIVUDINE], the results for the selectivity ratio in data set [3] and in data set [5] were > 1000 and < 1, respectively. Also, the inhibition in data set [1] turned out to be 94.3%; in data set [7], 17.7%; in data set [8], 90.7%. Moreover, the CC50 at 72 h in data set [2] is > 100 µM.
For the compound `C=C1[C@H](CO)[C@@H](O)C[C@@H]1n1cnc2c(=O)[nH]c(N)nc21`, the results for the inhibition in data set [9] and in [10] were 22.6% and 98.1%, respectively.
`COc1ccccc1CSc1nc2ccc(OCCN(C)C)cc2c(=O)n1Cc1cccs1`: the inhibition in data set [1] came to 53.9%. For the same compound, the CC50 at 72 h in data set [2] is 14.7 µM.
The matching figures for `O=c1c2cc(F)ccc2nc(SCc2ccccc2)n1Cc1cccs1`: 9.53% and > 100 µM.
`COc1ccc(C(C)=O)cc1CSc1nc2ccc(Br)cc2c(=O)n1Cc1cccs1`: the inhibition in data set [1] came to 46%. For the same compound, the CC50 at 72 h in data set [2] was > 100 µM.
On to `O=c1c2cc(I)ccc2nc(SCc2ccccc2)n1Cc1cccs1`, for which the inhibition in [1] was 1.87%. For the same compound, the CC50 at 72 h in data set [2] was > 100 µM.
With `COc1ccccc1CSc1nc2ccc(F)cc2c(=O)n1Cc1cccs1`, the selectivity ratio in data set [3] is > 40.5. In data set [1], the inhibition was determined as 79.6%. Also, the CC50 at 72 h in data set [2] was > 100 µM.
With `COc1ccc(C(C)=O)cc1CSc1nc2ccc(F)cc2c(=O)n1Cc1cccs1`, the inhibition in [1] worked out at 30.7%. In addition, the CC50 at 72 h in data set [2] stood at 89 µM.
In the case of `O=c1c2cc(O)ccc2nc(SCc2ccccc2)n1Cc1cccs1`, the inhibition in data set [1] was determined as 5.62%. For the same compound, the CC50 at 72 h in data set [2] was > 100 µM.
In the case of `COc1ccccc1CSc1nc2ccc(Br)cc2c(=O)n1Cc1cccs1`, in data set [1], the inhibition came to 64.2%. Also, the CC50 at 72 h in data set [2] was > 100 µM.
On to `COc1ccccc1CSc1nc2ccc(Cl)cc2c(=O)n1Cc1cccs1`, for which the inhibition in data set [1] was 63.3%. In data set [2], the CC50 at 72 h is > 100 µM.
Regarding `COc1ccc(C(C)=O)cc1CSc1nc2ccc(O)cc2c(=O)n1Cc1cccs1`, the inhibition in [1] was determined as 3.26%. The 50% cytotoxic concentration (CC50) at 72 h in data set [2] was > 100 µM.
The matching figures for `Cc1ccc2nc(SCc3ccccc3)n(Cc3cccs3)c(=O)c2c1`: 13.8% and > 100 µM.
With `COc1ccc(C(C)=O)cc1CSc1nc2ccc(I)cc2c(=O)n1Cc1cccs1`, the inhibition in data set [1] worked out at 45.4%. Moreover, in data set [2], the CC50 at 72 h was found to be 81.1 µM.
